Source: article PMC11042244 (RSC Medicinal Chemistry, 2024)

Experiments:
[1] = biological target: T1, HNE (human neutrophil elastase) (Homo sapiens, UniProt P08246); test: HNE inhibition assay (fluorogenic substrate, enzymatic); assay type: biochemical; settings: mean ± SD of three independent experiments, N.A. = no inhibitory activity at the highest concentration tested (50 μM)
T1 construct: purchased Calbiochem
T1 sequence (P08246 30-247 limits assumed): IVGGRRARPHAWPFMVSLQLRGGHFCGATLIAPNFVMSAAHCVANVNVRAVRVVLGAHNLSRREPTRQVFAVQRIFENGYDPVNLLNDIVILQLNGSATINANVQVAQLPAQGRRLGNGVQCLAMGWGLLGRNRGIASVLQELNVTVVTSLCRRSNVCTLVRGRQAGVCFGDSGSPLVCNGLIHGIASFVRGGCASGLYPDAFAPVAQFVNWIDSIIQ
Method: All compounds were dissolved in 100% DMSO at 5 mM stock concentrations and then subsequently diluted in 100% DMSO at various concentrations appropriate for use in the dose–response assays. […] The HNE inhibition assay was performed in black flat-bottom 96-well microtiter plates. Briefly, a buffer solution containing 200 mM Tris-HCl, pH 7.5, 0.01% bovine serum albumin, and 0.05% Tween-20 and 20 mU mL^−1 of HNE (Calbiochem) was added to wells containing different concentrations of each compound. The reaction was initiated by addition of 25 μM elastase substrate (N-methylsuccinyl-Ala-Ala-Pro-Val-7-amino-4-methylcoumarin, Calbiochem) in a final reaction volume of 100 μL per well. Kinetic measurements were obtained every 30 s for 10 min at 25 °C using a Fluoroskan Ascent FL fluorescence microplate reader (Thermo Electron, MA) with excitation and emission wavelengths of 355 and 460 nm, respectively. For all compounds tested, the concentration of inhibitor that caused 50% inhibition of the enzymatic reaction (IC50) was calculated by plotting % inhibition versus logarithm of inhibitor concentration (at least six points).[50]

[2] = tested on: murine bone marrow leukocytes; test: Cytotoxicity assay (CellTiter-Glo luminescent cell viability); assay type: cell-based, murine (CD-1 mice); settings: for IC50: Mus musculus, Leukocyte, read-out: Cyto-toxicity IC50; for Cyto-toxicity IC50: 90 min incubation, mean ± SD of three experiments, N.A. = no cytotoxicity at the highest concentration tested (25 μM)
Method: (§1) All animal use was conducted in accordance with a protocol approved by the Institutional Animal Care and Use Committee (IACUC) at Montana State University (protocol approval number 2022-45-IA). Bone marrow leukocytes were flushed from tibias and femurs of BALB/c mice (2-month old; 25 g body weight) or CD-1 female mice (2.5-month old; 30 g body weight) with HBSS, filtered through a 70 μm nylon cell strainer (BD Biosciences, Franklin Lakes, NJ) to remove cell clumps and bone particles.
The cytotoxicity of compounds for murine bone marrow leukocytes was analyzed using a CellTiter-Glo Luminescent Cell Viability Assay kit (Promega), according to the manufacturer's protocol. Briefly, bone marrow leukocytes from CD-1 mice were incubated at a density of 10^4 cells per well with different concentrations of compounds (the final concentration of DMSO was 1%) for 90 min at 37 °C and 5% CO2. Following treatment, the substrate was added to the cells, and the samples were analyzed with a FlexStation 3 microplate reader (Molecular Devices, San Jose, CA), USA.

[3] = tested on: ROS produced by PMA-stimulated murine bone marrow leukocytes; test: Antiradical activity assay: L-012-enhanced chemiluminescence of ROS production; assay type: cell-based, murine (BALB/c mice)
Method: as §1
To evaluate antiradical activity, murine bone marrow leukocytes from BALB/c mice were resuspended at 10^6 cells per ml in HBSS containing Ca^2+ and Mg^2+ (HBSS^+) and supplemented with 40 μM L-012 (Wako Chemicals, Richmond, VA),[51] since L-012-enhanced chemiluminescence represents a sensitive and reliable method for detecting ROS.[52] The cells (100 μl) were then aliquoted into wells of 96-well flat-bottom white microtiter plates containing test compounds diluted in 100 μl of HBSS^+ (final DMSO concentration of 1%). The cells were activated by adding 200 nM PMA (Sigma Chemical Co., St. Louis, MO), and luminescence was monitored for 60 min (2 min intervals) at 37 °C using a Fluoroskan Ascent FL microtiter plate reader (Thermo Electron, Waltham, MA). The compound concentration that inhibited ROS production by 50% of the PMA-stimulated response was determined by graphing the percentage inhibition of the 60 min integrated luminescence versus the logarithm of concentration of test compound. Each curve was determined using five to seven compound concentrations. Curve fitting and calculation of median effective concentration values (IC50) were performed by nonlinear regression analysis of the dose–response curves generated using Prism 10 (GraphPad Software, Inc., San Diego, CA, USA).

[4] = inhibition of ROS production, 200 nM PMA, 60 min integrated luminescence, mean ± SD of three experiments, N.A. = no inhibitory activity at the highest concentration tested (50 μM)

Row | SMILES | HNE inhibition IC50 [1] | IC50 [2] | IC50 ([3]; Mus musculus, Leukocyte, 1 h) | IC50 [1] | Cyto-toxicity IC50 [2] | Antiradical activity IC50 [3, 4] | IC50 [3, 4]
1 | CCOC(=O)n1[se]c2ccccc2c1=O [4h, Ethyl 3-oxobenzo[d][1,2]selenazole-2(3H)-carboxylate] | completely inactive | 15200 ± 3200 nM | 2500 ± 400 nM |  |  |  | 
2 | Cc1cccc(C(=O)n2[se]c3ccccc3c2=O)c1 [4n, 2-(3-Methylbenzoyl)benzo[d][1,2]selenazol-3(2H)-one] |  |  | 7000 ± 1300 nM | 10900 ± 2100 nM | no cytotoxicity |  | 
3 | COc1ccc(C(=O)n2[se]c3ccccc3c2=O)cc1 [4o, 2-(4-Methoxybenzoyl)benzo[d][1,2]selenazol-3(2H)-one] |  |  |  | 8700 ± 1200 nM |  |  | 
4 | O=C(c1ccsc1)n1[se]c2ccccc2c1=O [4p, 2-(Thiophene-3-carbonyl)benzo[d][1,2]selenazol-3(2H)-one] |  |  | 14300 ± 2700 nM |  | no cytotoxicity |  | 
5 | CCC(=O)n1[se]c2ccccc2c1=O [4b, 2-Propionylbenzo[d][1,2]selenazol-3(2H)-one] |  | 8500 ± 1800 nM | 180 ± 50 nM | 2600 ± 200 nM |  |  | 
6 | O=C(C1CC1)n1[se]c2ccccc2c1=O [4j, 2-(Cyclopropanecarbonyl)benzo[d][1,2]selenazol-3(2H)-one] |  | 10400 ± 2400 nM |  | 1400 ± 100 nM |  |  | 
7 | CC(=O)n1[se]c2ccccc2c1=O [4a, 2-Acetylbenzo[d][1,2]selenazol-3(2H)-one] |  | 10800 ± 2400 nM | 420 ± 60 nM | 7700 ± 2300 nM |  |  | 
8 | O=C(NC1CC1)n1[se]c2ccccc2c1=O [compound 8, N-Cyclopropyl-3-oxobenzo[d][1,2]selenazole-2(3H)-carboxamide] | completely inactive | 5900 ± 1600 nM | 900 ± 300 nM |  |  |  | 
9 | Cc1cccc(NC(=O)c2ccc(-n3[se]c4ccccc4c3=O)cc2)c1 [3d, 4-(3-Oxobenzo[d][1,2]selenazol-2(3H)-yl)-N-(m-tolyl)benzamide] |  |  |  |  | no cytotoxicity | inactivity | 
10 | O=C(C1CCCCC1)n1[se]c2ccccc2c1=O [4l, 2-(Cyclohexanecarbonyl)benzo[d][1,2]selenazol-3(2H)-one] |  | 12400 ± 3400 nM | 1100 ± 100 nM | 24100 ± 4800 nM |  |  | 
11 | CC(C)(C)C(=O)Oc1ccc(S(=O)(=O)n2[se]c3ccccc3c2=O)cc1 [compound 6, 4-[(3-Oxobenzo[d][1,2]selenazol-2(3H)-yl)sulfonyl]phenyl pivalate] |  |  | 6400 ± 400 nM | 2700 ± 500 nM | no cytotoxicity |  | 
12 | O=c1c2ccccc2[se]n1-c1ccccc1 [Ebselen (3a), 2-phenyl-1,2-benzoselenazol-3(2H)-one, reference compound] | completely inactive | 9500 ± 2500 nM |  |  |  |  | 
13 | CC(C)(C)C(=O)Oc1ccc(S(=O)(=O)Nc2ccccc2C(=O)NCC(=O)O)cc1 [Sivelestat, reference compound] |  |  |  |  | no cytotoxicity |  | 
14 | CC(C)C(=O)n1[se]c2ccccc2c1=O [4d, 2-Isobutyrylbenzo[d][1,2]selenazol-3(2H)-one] |  | 9600 ± 2200 nM | 600 ± 200 nM | 1200 ± 100 nM |  |  | 
15 | CCCCC(=O)n1[se]c2ccccc2c1=O [4f, 2-pentanoylbenzo[d][1,2]selenazol-3(2H)-one] |  | 4200 ± 900 nM | < 1000 nM | 900 ± 200 nM |  |  | 700 ± 200 nM
16 | CC(C)(C)C(=O)n1[se]c2ccccc2c1=O [4e, 2-Pivaloylbenzo[d][1,2]selenazol-3(2H)-one] |  | 13600 ± 3100 nM | 2600 ± 400 nM | 1800 ± 100 nM |  |  | 
17 | O=C(C1CCCC1)n1[se]c2ccccc2c1=O [4k, 2-(Cyclopentanecarbonyl)benzo[d][1,2]selenazol-3(2H)-one] |  | 11800 ± 2800 nM | 1400 ± 200 nM | 2800 ± 200 nM |  |  | 
18 | CCOC(=O)c1ccc(-n2[se]c3ccccc3c2=O)cc1 [3b] |  |  | 1800 ± 200 nM |  | no cytotoxicity |  | 
19 | O=C(NC1CC1)c1ccc(-n2[se]c3ccccc3c2=O)cc1 [3c, N-Cyclopropyl-4-(3-oxobenzo[d][1,2]selenazol-2(3H)-yl)benzamide] |  | 8000 ± 1900 nM | 9700 ± 1400 nM |  |  |  | 
20 | CCCC(=O)n1[se]c2ccccc2c1=O [4c, 2-Butyrylbenzo[d][1,2]selenazol-3(2H)-one] |  | 4900 ± 600 nM | 330 ± 80 nM | 2400 ± 400 nM |  |  | 
21 | O=C(c1ccccc1)n1[se]c2ccccc2c1=O [4m, 2-Benzoylbenzo[d][1,2]selenazol-3(2H)-one] |  |  |  | 2300 ± 400 nM |  |  | 
22 | CCCCCC(=O)n1[se]c2ccccc2c1=O [4g, 2-Hexanoylbenzo[d][1,2]selenazol-3(2H)-one] |  |  |  | 3000 ± 400 nM | no cytotoxicity | inactivity | 
23 | CCOC(=O)CC(=O)n1[se]c2ccccc2c1=O [4i, Ethyl 3-oxo-3-(3-oxobenzo[d][1,2]selenazol-2(3H)-yl)propanoate] |  | 8100 ± 1700 nM | 1000 ± 300 nM |  |  |  | 
